Among the test systems are OVCAR-8; SF-539; SW-620; KM12; CCRF-CEM; DMS-273; SNB-75; SF-295; UACC-62; IGROV-1; SK-MEL-28; HOP-92; A498; OVCAR-5; OVCAR-4; MDA-MB-231; PC-3; BT-549; MCF7; Hs-578T.
Experiment in all cases: NCI tumour cell line growth inhibition, 48 h

The record followed here is ChEMBL document CHEMBL1201862, “PubChem BioAssay data set” (2004).

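A five-concentration, 48-hour dose response in 96-well plates underlies each endpoint, interpolated linearly between surrounding concentrations. GI50 marks 50% less growth.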 Activity calls are given as the source filed them. No stated cut-off is given here; in the data, active = GI50 up to about 1.1 µM and inactive = higher. Some results are limits rather than exact numbers.

Turning to `O=C(C#Cc1ccccc1)Nc1ccccc1CC(c1c[nH]c2ccccc12)c1c[nH]c2ccccc12`, the GI50 was 8.32 µM (inactive) in the experiment with OVCAR-8; 12.3 µM (inactive) in the experiment on SF-539; 12.1 µM (inactive) with SW-620; 14.7 µM (inactive) in the experiment with KM12; 3.3 µM (inactive) in the experiment with CCRF-CEM; 11.3 µM (inactive) in the experiment on DMS-273. Besides, the GI50 in the experiment on SNB-75 was 5.9 µM (inactive); in the experiment with SF-295 it was 9.46 µM (inactive); in the experiment on UACC-62 it was 7.5 µM (inactive); in the experiment on IGROV-1, 16.3 µM (inactive); in the experiment on SK-MEL-28, 15.5 µM (inactive).
Consider `CCCOC(=O)C1CCC(=O)N1C(=O)C(C)Cl` (stereo not drawn), for which the GI50 in the experiment on OVCAR-8, with HOP-92, with SW-620, in the experiment with KM12, in the experiment with A498 and in the experiment with CCRF-CEM was > 100 µM (inactive) throughout. Further, the GI50 in the experiment on OVCAR-5, with DMS-273, in the experiment on SNB-75, in the experiment with SF-295, in the experiment on UACC-62 and in the experiment on OVCAR-4 was > 100 µM (inactive) throughout. For the same compound, the GI50 with IGROV-1 and in the experiment with SK-MEL-28 was > 100 µM (inactive) each time.
With `O=C(O)CNCc1c2ccccc2[n+]([O-])c2ccccc12`, the GI50 is 80.5 µM (inactive) in the experiment with OVCAR-8; 16.9 µM (inactive) in the experiment with HOP-92; 47 µM (inactive) with SW-620; 51.1 µM (inactive) in the experiment with KM12; > 100 µM (inactive) with A498; 34.3 µM (inactive) with CCRF-CEM. The GI50 was > 100 µM (inactive) in the experiment on OVCAR-5; 46.7 µM (inactive) with DMS-273; 34.5 µM (inactive) in the experiment on SNB-75; > 100 µM (inactive) in the experiment on SF-295; 58.1 µM (inactive) in the experiment with UACC-62; 49.3 µM (inactive) in the experiment on OVCAR-4. Also, the GI50 is 91.6 µM (inactive) with IGROV-1 and 75.7 µM (inactive) in the experiment on SK-MEL-28.
For `COc1ccc(OC)c(NC(=O)C2=C(C)NC(C)=C(C(=O)Nc3cc(OC)ccc3OC)C2c2ccco2)c1`, the GI50 in the experiment on OVCAR-8, with HOP-92, in the experiment with SF-539, with SW-620, with KM12 and in the experiment with A498 was > 100 µM (inactive) in each case. Besides, the GI50 in the experiment on CCRF-CEM is > 100 µM (inactive); in the experiment with OVCAR-5 it was > 100 µM (inactive); in the experiment with DMS-273, 95.9 µM (inactive); in the experiment with SNB-75, > 100 µM (inactive); in the experiment on UACC-62, > 100 µM (inactive); in the experiment with IGROV-1, > 100 µM (inactive).
Regarding `CC12OC(=O)C(C#N)C1(C)C1C(=O)CCCC12` (stereo not drawn), the GI50 with OVCAR-8, with SF-539, in the experiment with SW-620, in the experiment with KM12, with CCRF-CEM and with OVCAR-5 was > 100 µM (inactive) each time. Further, the GI50 in the experiment with DMS-273, in the experiment on SNB-75, in the experiment with SF-295, with UACC-62, in the experiment with OVCAR-4 and with IGROV-1 was > 100 µM (inactive) in each case. Further, in the experiment on SK-MEL-28, the GI50 was > 100 µM (inactive).
As for `Cc1cn(C2CC(O)C(CO[Si](C)(C)C(C)(C)C)OC2OC(C)C)c(=O)[nH]c1=O` (stereo not drawn), the GI50 is 33.5 µM (inactive) in the experiment on OVCAR-8; 32.2 µM (inactive) with HOP-92; 35.2 µM (inactive) in the experiment with MDA-MB-231; 21.9 µM (inactive) with SF-539; 49.4 µM (inactive) with SW-620; 49.5 µM (inactive) in the experiment with KM12. In addition, the GI50 is > 10 µM (inactive) in the experiment with A498; 36.1 µM (inactive) in the experiment with CCRF-CEM; 33.6 µM (inactive) in the experiment with PC-3; > 100 µM (inactive) in the experiment on OVCAR-5; > 100 µM (inactive) in the experiment with SNB-75; 44.9 µM (inactive) with BT-549. For the same compound, the GI50 was 22.4 µM (inactive) in the experiment on MCF7; 65 µM (inactive) in the experiment with SF-295; > 100 µM (inactive) in the experiment on UACC-62; 44.5 µM (inactive) with OVCAR-4; 29.8 µM (inactive) in the experiment on IGROV-1; 41 µM (inactive) in the experiment on SK-MEL-28. The GI50 in the experiment with Hs-578T was 67.3 µM (inactive).
In the case of `CCOC(=O)c1c[nH]c2c(ccc3ncccc32)c1=O`, the GI50 in the experiment on OVCAR-8, in the experiment on SF-539, in the experiment on SW-620, in the experiment on KM12, in the experiment on A498 and with CCRF-CEM was > 100 µM (inactive) each time. Moreover, the GI50 with OVCAR-5, in the experiment on DMS-273, in the experiment on SNB-75, in the experiment on UACC-62, with OVCAR-4 and with IGROV-1 was > 100 µM (inactive) throughout. The GI50 with SK-MEL-28 was > 100 µM (inactive).
Turning to `Cc1ccc(C)c(NC(=O)/C(=N\N)C(c2cnc3ccc([N+](=O)[O-])cc3n2)[N+](=O)[O-])c1` (stereo not drawn), the GI50 with OVCAR-8 is 37 µM (inactive); in the experiment with HOP-92, > 100 µM (inactive); with MDA-MB-231, 37.8 µM (inactive); with SF-539 it was > 100 µM (inactive); in the experiment with SW-620, > 100 µM (inactive); in the experiment with KM12, 47.9 µM (inactive). Moreover, the GI50 in the experiment on A498 is 83.2 µM (inactive); in the experiment with CCRF-CEM it was 4.99 µM (inactive); with PC-3 it was 50.7 µM (inactive); with OVCAR-5, > 100 µM (inactive); in the experiment on SNB-75, > 100 µM (inactive); in the experiment with BT-549 it was > 100 µM (inactive). In addition, the GI50 in the experiment on MCF7 was 60.8 µM (inactive); in the experiment with SF-295, > 100 µM (inactive); in the experiment on UACC-62, > 100 µM (inactive); in the experiment with OVCAR-4, 18.4 µM (inactive); in the experiment with IGROV-1, 51.9 µM (inactive); in the experiment with SK-MEL-28, > 100 µM (inactive). The GI50 in the experiment on Hs-578T is 80.4 µM (inactive).
With `CCOC(=O)N1CCN(c2ccc3c(C)cc(C)nc3n2)CC1`, the GI50 with OVCAR-8, in the experiment on HOP-92, in the experiment with MDA-MB-231, with SF-539, in the experiment on SW-620 and in the experiment with KM12 was > 100 µM (inactive) throughout. Besides, the GI50 in the experiment on A498, with CCRF-CEM, in the experiment with PC-3, in the experiment with OVCAR-5, with SNB-75 and in the experiment on BT-549 was > 100 µM (inactive) each time. Further, the GI50 in the experiment with MCF7, with SF-295, in the experiment on UACC-62, in the experiment with OVCAR-4, in the experiment with IGROV-1 and with SK-MEL-28 was > 100 µM (inactive) in each case. In addition, in the experiment on Hs-578T, the GI50 is > 100 µM (inactive).
For the compound `O=C(O)c1cccc(F)c1C(=O)c1ccc2ccccc2c1`, the GI50 in the experiment on OVCAR-8, with HOP-92, in the experiment with MDA-MB-231, in the experiment on SF-539, in the experiment on SW-620 and in the experiment on KM12 was > 100 µM (inactive) each time. Moreover, the GI50 in the experiment on A498 is > 100 µM (inactive); in the experiment with CCRF-CEM, > 100 µM (inactive); with PC-3, > 100 µM (inactive); with OVCAR-5, > 100 µM (inactive); in the experiment on SNB-75, 73.1 µM (inactive); with BT-549, > 100 µM (inactive). Also, the GI50 in the experiment with MCF7, with SF-295, with UACC-62, in the experiment on OVCAR-4, in the experiment with IGROV-1 and in the experiment with SK-MEL-28 was > 100 µM (inactive) each time. In addition, the GI50 with Hs-578T was > 100 µM (inactive).
In the case of `COc1cc(C2c3cc4c(cc3[C@@H](NCCN3CCCCC3)C3COC(=O)[C@H]23)OCO4)cc(OC)c1O` (stereo partly drawn), the GI50 was 0.718 µM (active) in the experiment with OVCAR-8; 0.142 µM (active) in the experiment with HOP-92; 0.134 µM (active) in the experiment on SF-539; 1.04 µM (active) with SW-620; 1.01 µM (active) in the experiment on KM12; 0.165 µM (active) in the experiment with A498. For the same compound, the GI50 in the experiment on CCRF-CEM was 0.0378 µM (active); in the experiment on OVCAR-5 it was 1.41 µM (inactive); in the experiment on DMS-273, 0.0726 µM (active); in the experiment with SF-295, 0.107 µM (active); in the experiment on UACC-62, 0.272 µM (active); in the experiment with OVCAR-4, 0.253 µM (active). Besides, the GI50 with IGROV-1 is 1.33 µM (inactive); in the experiment with SK-MEL-28, 2.11 µM (inactive).
`Cc1c(O)c(=O)ccn1CCO`: the GI50 in the experiment on OVCAR-8, with HOP-92, with SW-620, with KM12, with A498 and in the experiment with CCRF-CEM was > 100 µM (inactive) throughout. The GI50 in the experiment on OVCAR-5 is > 100 µM (inactive); in the experiment with DMS-273 it was > 10 µM (inactive); in the experiment on SNB-75, > 100 µM (inactive); with SF-295 it was > 100 µM (inactive); with UACC-62, > 100 µM (inactive); in the experiment on OVCAR-4 it was > 100 µM (inactive). Besides, the GI50 in the experiment with SK-MEL-28 was > 100 µM (inactive).
As for `Cc1c(O)c(=O)ccn1CCN`, the GI50 in the experiment with OVCAR-8, in the experiment with HOP-92, in the experiment on SW-620, in the experiment with KM12, with A498 and in the experiment with CCRF-CEM was > 100 µM (inactive) throughout. In addition, the GI50 with OVCAR-5, in the experiment on DMS-273, in the experiment with SNB-75, in the experiment with UACC-62, in the experiment on OVCAR-4 and in the experiment on IGROV-1 was > 100 µM (inactive) in each case. For the same compound, the GI50 in the experiment on SK-MEL-28 was > 100 µM (inactive).
